Values of other authors in publication PMC11372459 (Acta Pharmaceutica Sinica. B, 2024).

System: Gram-positive bacteria

Nisin (ITSISLCTPGCKTGALMGCNMKTATCHCSIHVSK; not fully specified; Lantibiotic nisin-A; UniProt P13068 24-57, looked up)
antibacterial spectrum: specific activity against Gram-positive bacteria
